We go through 17 compounds from patent publication US20080170993A1, “THYMIDINE ANALOGS FOR IMAGING” (priority 2006, published 2008).

SMILES strings stand for the structures.

In the test the target is T1, recombinant thymidine kinase 1 (TK-1) (Homo sapiens, UniProt P04183).
T1 sequence (P04183 1-234): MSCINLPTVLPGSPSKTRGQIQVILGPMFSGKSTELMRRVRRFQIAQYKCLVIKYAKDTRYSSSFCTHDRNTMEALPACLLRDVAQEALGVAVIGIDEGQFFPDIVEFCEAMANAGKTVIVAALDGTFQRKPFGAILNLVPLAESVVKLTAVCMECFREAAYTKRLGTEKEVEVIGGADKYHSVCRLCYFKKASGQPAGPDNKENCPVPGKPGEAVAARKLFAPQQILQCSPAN
The settings on record: cold 19F analogues; 100 μM ATP+P-32-ATP, 10-60 ng thymidine kinase; TLC, phosphoimager; thymidine 100%.

For `Cc1cn([C@H]2C[C@H](O)[C@@H](CO)O2)c(=O)n(CCCNC(=O)c2ccc(F)c(C(F)(F)F)c2)c1=O`, the “In vitro-Phosphorylation” value is given as 12% ± 1.1%.

Regarding `Cc1cn([C@H]2C[C@H](O)[C@@H](CO)O2)c(=O)n(CCCCN(C)C(=O)c2ccc(F)c(C#N)c2)c1=O`, the “In vitro-Phosphorylation” value was 12% ± 2.8%.

As for `Cc1cn([C@H]2C[C@H](O)[C@@H](CO)O2)c(=O)n(CCNC(=O)CNC(=O)C(CF)NS(=O)(=O)c2c(C(C)C)cc(C(C)C)cc2C(C)C)c1=O` (some centres unmarked), the “In vitro-Phosphorylation” value was 19% ± 3.7%.

In the case of `Cc1cn([C@H]2C[C@H](O)[C@@H](CO)O2)c(=O)n(CCCCCCNC(=O)CNC(=O)C(CF)NS(=O)(=O)c2c(C(C)C)cc(C(C)C)cc2C(C)C)c1=O` (some centres unmarked), the “In vitro-Phosphorylation” value was 17% ± 10.2%.

Regarding `Cc1cn([C@H]2C[C@H](O)[C@@H](CO)O2)c(=O)n(CCCNC(=O)Cc2ccc([Si](F)(C(C)C)C(C)C)cc2)c1=O`, the “In vitro-Phosphorylation” value is listed as 17% ± 1.5%.

In the case of `N#Cc1cc(C(=O)NCCCCCCn2c(=O)c(C(F)(F)F)cn([C@H]3C[C@H](O)[C@@H](CO)O3)c2=O)ccc1F`, the “In vitro-Phosphorylation” value is reported as 49% ± 9.9%.

Turning to `Cc1cn([C@H]2C[C@H](O)[C@@H](CO)O2)c(=O)n(CCCCCCCNC(=O)c2ccc(F)c(C#N)c2)c1=O`, the “In vitro-Phosphorylation” value was 36% ± 6.5%.

`Cc1cn([C@H]2C[C@H](O)[C@@H](CO)O2)c(=O)n(CCCNC(=O)CCc2cccc([Si](F)(C(C)C)C(C)C)c2)c1=O`: the “In vitro-Phosphorylation” value is given as 15% ± 6.1%.

On to `Cc1cn([C@H]2C[C@H](O)[C@@H](CO)O2)c(=O)n(CC#CCF)c1=O`, for which the “In vitro-Phosphorylation” value was 23% ± 8.0%.

As to `Cc1cn([C@H]2C[C@H](O)[C@@H](CO)O2)c(=O)n(Cc2ccc(F)cc2)c1=O`, the “In vitro-Phosphorylation” value is listed as 34% ± 18.6%.

In the case of `Cc1cn([C@H]2C[C@H](O)[C@@H](CO)S2)c(=O)n(CCCCCCF)c1=O`, the “In vitro-Phosphorylation” value was 26% ± 4.0%.

With `Cc1cn([C@H]2C[C@H](O)[C@@H](CO)S2)c(=O)[nH]c1=O`, the “In vitro-Phosphorylation” value is given as 70% ± 9.3%.

With `Cc1cn([C@H]2C[C@H](F)[C@@H](CO)O2)c(=O)[nH]c1=O` [FLT, 3′-[F-18]fluoro-3′-deoxythymidine, reference compound], the “In vitro-Phosphorylation” value was 58% ± 11.9%.

On to `Cc1cn([C@H]2C[C@H](O)[C@@H](CO)O2)c(=O)n(CCCCF)c1=O` [TD-1], for which the “In vitro-Phosphorylation” value is 13% ± 5.4%.

With `Cc1cn([C@H]2C[C@H](O)[C@@H](CO)O2)c(=O)n(CCCCCCF)c1=O` [TD-2], the “In vitro-Phosphorylation” value is on record as 30% ± 3.7%.

In the case of `Cc1cn([C@H]2C[C@H](O)[C@@H](CO)O2)c(=O)n(CCCCCCNC(=O)c2ccc(F)c(C#N)c2)c1=O` [TD-8], the “In vitro-Phosphorylation” value was 41% ± 9.5%.

Take `Cc1cn([C@H]2C[C@H](O)[C@@H](CO)O2)c(=O)n(CCCCNC(=O)c2ccc(F)c(C#N)c2)c1=O` [TD-9]: the “In vitro-Phosphorylation” value is given as 21% ± 4.6%.
